From patent US20250011726A1, “METHODS AND COMPOSITIONS FOR MAINTAINING AGGREGATE STABILITY AND PLURIPOTENCY OF STEM CELLS” (Trailhead Biosystems Inc., priority 2023, published 2025)

Experiments:
hiPSCs = test: Pluripotency marker expression by flow cytometry and qPCR; assay type: cell-based, human; conditions: for factor contribution (FC), NANOG optimization: MODDE optimizer for NANOG
Experimental: 3 ml sample was taken from each bioreactor on day 4 of the culture for qPCR testing. RNA samples were dissolved in Trizol and extracted. Quantification of RNA was performed on epoch reader. A high-Capacity cDNA RT Kit was used for reverse transcription of RNA samples of each bioreactor. 3 replicate samples of cDNA were obtained from 3 replicate samples of each bioreactor. Data collection was performed using QuantStudio for qPCR testing. The runs were performed per the manufacturer's protocol and recommendations. The primers used were NANOG, SOX2, POU5F1 and GAPDH. The data set obtained was then exported to Excel and normalized against corresponding housekeeping gene GAPDH. Final expression levels were expressed as 1/(2^Crt)×1000 and inputted into the MODDE software. A 3 ml sample was taken from each bioreactor on day 4 of the culture for flow testing. The aggregates were dissociated with Accutase for 10 minutes into single cells. Cells were resuspended in PBS and divided into samples for intracellular staining and cells for extracellular staining. Sample for intracellular staining were fixed with a live/dead stain FVS 780, then permeabilized and stained for OCT4 and SOX2.
Pluripotency data was assessed at the end of the experiment through Immunohistochemistry (IHC), flow cytometry and qPCR testing. The experiment was divided into two batches of experiments to be run at different times. Three replicated center point experiments with all five additives at mid-concentrations were used and split between the batches for normalization and model evaluation purposes. The optimization criteria were based on multiple attributes related to aggregate stability, cell growth and pluripotency. Mathematical models were generated and tuned for maximal predictive power and fit. The model responses for each parameter were statistically evaluated for model reproducibility, model validity, fit (R2) and prediction precision (Q2). […] The model had model validity above 0.25 indicating the absence of problems related to outliers and transformation issues.
Attaining maximal growth conditions of iPSC is not meaningful unless the iPSC state characteristics is also maintained. […] At the end of the experiment, using flow cytometry we tested for SSEA4, OCT4, SOX2 and TRA-1-60 while a complimentary q-PCR assessment was conducted for NANOG, OCT4 and SOX2. The results of these experiments were used to model the effect of the additives on pluripotency. […] This is because that until proven that individual factors are not in regulatory conflict (i.e., SOX2, NANOG, or OCT4 being subject to differential control), single-response factor optimization is prudent. As we found, these factors are indeed subject to differential control.

hiPSC aggregates = test: Aggregate size, deviation and Aggregate % Error in bioreactor; assay type: cell-based, human; conditions: DS and pluronic F68 at low concentrations; heparin sodium salt and PEG present; FIG. 4B
Experimental: Samples from the bioreactor were taken after slightly mixing using a pipette to avoid sampling bias and gradient formation after settling. 3 ml total was sampled daily for 3 samples of 1 ml for cell count. The cells were first dissociated using Accutase and incubated for 10minutes. Cells were then quenched with E8 then centrifuged at 400×g for 6 minutes. The pellet was resuspended in the same volume of PBS. Samples were then analyzed for total cell count using Attune flow. 3 replicate counts were collected for each bioreactor for each day of culture. 2 samples were collected for aggregate imaging of 500 ul and put on a 24 well plate. EVOS 7000 was used for bright field images of the aggregates. […] A minimum of 30 aggregates were measured for each bioreactor every day of the culture. […] The cell counts were also analyzed for doubling time using GraphPad Prism. […] Using the aggregate size generated from day 1 from all bioreactors and their corresponding cell growth rate, a predicted aggregate size was calculated for day 3 and compared to the actual size measured. The predicted aggregate size was calculated from theoretical aggregate volume. […]
From the cell number, the predicted aggregate volume (V3P) was calculated again from the first equation. […] This is calculated by subtracting the predicted from the actual average size measured and divided by the actual value: […]

[1] = coefficients of flow and qPCR markers, FIG. 3B

| Substance | factor contribution (FC), NANOG optimization (hiPSCs) | contribution factor, optimizer for target aggregate % error of 0 (hiPSC aggregates) | impact on NANOG (coefficient) (hiPSCs; [1]) | impact on OCT4 (coefficient) (hiPSCs; [1]) |
| --- | --- | --- | --- | --- |
| Heparin sodium salt [reference compound] | 21.12 | 21.71 |  |  |
| dextran sulfate [DS] | 48.04 | 28.05 | positive | negative |
